Tests used:
[1] = system: TK6 cells; assay: γH2AX assay using TK6 cells; type: cell-based, Human; conditions: 4 hr treatment, up to 100 μM
Method: γH2AX Assay Using TK6 Cells
Human lymphoblasts-derived TK6 cells were treated with the compounds of Examples 489, 512 or 519 at 0, 10, 30 or 100 μmol/L (final concentration) for 4 hr, and the presence or absence of DNA damage was evaluated by measuring phosphorylation of histone H2AX (γH2AX) as a marker. In addition, cytotoxicity after 24-hr treatment was also evaluated.
Exponentially growing TK6 cells were prepared at the cell density of 4×10^5 cells/mL in a culture medium, and was added to a 96-well plate by 100 μL/well. A test compound solution (2% DMSO) prepared using a culture solution, having twice the concentration on the above-mentioned final concentrations, was added thereto by 100 μL/well. This plate was incubated at 37° C., the cell suspension after 4 hr was sampled, and stained using In Vitro MultiFlow™ DNA Damage Kit (Litron), and H2AX phosphorylation level in each nucleus was measured using a flow cytometer and average value was calculated. The H2AX phosphorylation level in the concurrent vehicle control group was also measured and average value was calculated. The rate of change in the H2AX phosphorylation level in the treatment groups relative to that in the control group was calculated, and Dunnett test (significance level: two-tailed 1%) was performed. In addition, the cell suspension after 24 hr treatment was sampled, and the nucleus number was measured, and variation in the nucleus number in the treatment groups relative to that in the concurrent vehicle control group was used as an indicator of cytotoxicity. […] Therefore, the potential of the compounds for DNA strand breakage was judged to be negative under this test condition.

[2] = system: liver and glandular stomach cells; assay: Comet assay in rats (liver and glandular stomach); type: in vivo, rats (Crl:CD(SD)); conditions: rats, 1000 mg/kg and 2000 mg/kg once daily for 3 days
Method: Combination Assay of Micronucleus Test and Comet Assay in Rats
The compound of Example 489 at doses of 1000 and 2000 mg/kg was orally administered to 8 to 9-week-old rats (Crl:CD(SD), five/group) once daily for 3 days, and micronucleus induction was evaluated in bone-marrow cells, and DNA damage was evaluated by DNA fragmentation of cell nucleus in the liver and glandular stomach.
Sample for comet assay was obtained from liver and glandular stomach by the following procedures. A part of left lateral lobe of liver was washed well with a cooled mincing buffer solution (Hanks' balanced salt solution containing 20 mmol/L EDTA and 10 vol % DMSO, pH7.5), and minced finely with dissecting scissors. This sample was kept on ice for 15 to 30 seconds, the precipitated large cell mass was removed, and the obtained cell suspension was kept on ice. Glandular stomach was added to a cooled mincing buffer solution, and kept on ice for 15 to 30 min. Then, the surface epithelium was removed by scraping gently twice, the stomach mucosa was washed well with a cooled mincing buffer solution, and the mucosa surface was taken out by scraping carefully four times or five times. This was kept on ice for 15 to 30 seconds, the precipitated large cell mass was removed, and the obtained cell suspension was kept on ice.
The liver and glandular stomach cell suspensions prepared by the above-mentioned procedures were added to 0.5 w/v % low-melting agarose so that the concentration became 10 vol % or less, 40 μL of the suspension was dropped to MAS-coated slide (Matsunami Glass Ind., Ltd.), and fixed to give a slide sample. The slide sample was immersed in a cooled cell lysate [an aqueous solution containing 2.5 mol/L sodium chloride, 100 mmol/L EDTA, 10 mmol/L tris(hydroxymethyl)aminomethane, 10 vol % DMSO and 1 vol % Triton X-100, pH 10.0], and kept overnight under light shielding in a refrigerator (2 to 8° C.).
The slide sample was washed with ultrapure water, set at random into an electrophoresis apparatus filled with an alkali buffer solution (an aqueous solution containing 0.3 mol/L sodium hydroxide and 1 mmol/L EDTA, pH >13) for electrophoresis. After confirming that the sample was completely immersed, the sample was left for 20 min to unwind the strands. Next, electrophorese was performed at a constant voltage of 0.7 to 1 V/cm (current is set about 0.30 A) for 20 min (the electrophoresis apparatus was kept on ice so that the alkali buffer solution for electrophoresis was kept at a constant temperature of 10° C. or below, during from the dissociation of the strands to electrophoresis). After electrophoresis, the slide sample was immersed in a neutralizing solution [0.4 mol/L aqueous tris(hydroxymethyl)aminomethane solution, pH 7.5] for 5 min or longer. Then, the slide sample was immersed in ethanol for 5 min or longer, and air-dried. […] The slide samples for negative control, test compound and positive control groups were encoded, and analyzed by the blind method. In each individual animal, 150 of suitable cells were selected for observation using a biological microscope with fluorescence attachment at 200-fold final magnification, and analyzed by image analysis software (Comet Assay IV, Perceptive Instruments Ltd.). The degree of the DNA damage was evaluated by % tail intensity calculated automatically from image analysis software. The median of the % tail intensity was calculated in each slide sample, and the average of the median was calculated in each individual. […]

O=C1c2cc(-c3nnc(C(F)F)o3)cnc2CN1[C@@H]1CCCC[C@H]1NC(=O)C(F)(F)C(F)(F)F [Example 489, N-((1R,2R)-2-(3-(5-(difluoromethyl)-1,3,4-oxadiazol-2-yl)-5-oxo-5,7-dihydro-6H-pyrrolo[3,4-b]pyridin-6-yl)cyclohexyl)-2,2,3,3,3-pentafluoropropanamide]
histone H2AX phosphorylation (γH2AX) resulted from DNA strand breakage [1]: did not induce histone H2AX phosphorylation
potential for DNA strand breakage (judgement) [1]: negative
DNA strand breakage in liver and glandular stomach cells [2]: not induced

Reference: patent publication US10435399B2, “HDAC6 inhibitory heterocyclic compound” (TAKEDA PHARMACEUTICAL COMPANY LIMITED, priority 2017, dated 2019)
